Results: patent US12643859B2, “Pyridyl oxycarboxylic acid oxime derivative and preparation method therefor, weeding composition and application thereof” (Qingdao Kingagroot Chemical Compound Co., Ltd., priority 2018, dated 2026)

Test system: Indica rice
Assay: Post-emergence test experiment, crop selectivity
Assay type: in vivo
Conditions: post-emergence spray, 300 g a.i./ha, 3 weeks in greenhouse
Method: (§1) The above described growth inhibition rate is fresh weight inhibition rate.
(§2) Post-emergence test experiment: Monocotyledonous and dicotyledonous weed seeds and main crop seeds (i. e. wheat, corn, rice, soybean, cotton, oilseed, millet and sorghum.) were put into a plastic pot loaded with soil. Then covered with 0.5-2 cm soil, the seeds were allowed to grow in good greenhouse environment. The test plants were treated at 2-3 leaf stage 2 weeks after sowing. The test compounds of the invention were dissolved with acetone respectively, then added with tween-80, and using 1.5 liters per hectare of an emulsible concentrate of methyl oleate as a synergist, and diluted by certain amount of water to certain concentration. The solution was sprayed to the plants with a sprayer. Then the plants were cultured for 3 weeks in the greenhouse, and the experiment result of weed controlling effect was listed in tables 3-4.

SMILES | Activity level (fresh weight growth inhibition rate), Indica rice
CC(Oc1nc(F)c(Cl)c(N)c1Cl)C(=O)O (centres unmarked) [Control compound A, reference compound] | 3 (Level 3: the growth inhibition rate is equal to or greater than 40% and less than 60%)

Same assay, conditions: post-emergence spray, 600 g a.i./ha plus water 450 kg/ha, 3 weeks in greenhouse

SMILES | Activity level (fresh weight growth inhibition rate), Indica rice
CC(Oc1nc(F)c(Cl)c(N)c1Cl)C(=O)O (centres unmarked) [Control compound A, reference compound] | 3 (Level 3: the growth inhibition rate is equal to or greater than 40% and less than 60%)

Test system: Japonica rice
Assay: Post-emergence test experiment, crop selectivity
Assay type: in vivo
Conditions: post-emergence spray, 300 g a.i./ha, 3 weeks in greenhouse
Method: as §1, §2

SMILES | Activity level (fresh weight growth inhibition rate), Japonica rice
CC(Oc1nc(F)c(Cl)c(N)c1Cl)C(=O)O (centres unmarked) [Control compound A, reference compound] | 2 (Level 2: the growth inhibition rate is equal to or greater than 20% and less than 40%)

Same assay, conditions: post-emergence spray, 600 g a.i./ha plus water 450 kg/ha, 3 weeks in greenhouse

SMILES | Activity level (fresh weight growth inhibition rate), Japonica rice
CC(Oc1nc(F)c(Cl)c(N)c1Cl)C(=O)O (centres unmarked) [Control compound A, reference compound] | 3 (Level 3: the growth inhibition rate is equal to or greater than 40% and less than 60%)

Same assay, conditions: post-emergence, regardless of japonica or indica rice

SMILES | Selectivity to / inhibition of rice (in words)
CC(Oc1nc(F)c(Cl)c(N)c1Cl)C(=O)O (centres unmarked) [Control compound A, reference compound] | great inhibition to rice

Test system: Cyperus iria
Assay: Post-emergence test experiment, weed control
Assay type: in vivo
Conditions: Cyperus iria, 504 h; post-emergence spray, 300 g a.i./ha, 3 weeks in greenhouse; read-out: Activity level (fresh weight growth inhibition rate), Cyperus iria
Method: as §1, §2

SMILES | inhibition at 300 g/ha
CC(Oc1nc(F)c(Cl)c(N)c1Cl)C(=O)O (centres unmarked) [Control compound A, reference compound] | 60 to 85%

Same assay, conditions: post-emergence spray, 600 g a.i./ha plus water 450 kg/ha, 3 weeks in greenhouse

SMILES | Activity level (fresh weight growth inhibition rate), Cyperus iria
CC(Oc1nc(F)c(Cl)c(N)c1Cl)C(=O)O (centres unmarked) [Control compound A, reference compound] | 5 (Level 5: the growth inhibition rate is greater than 85%)

Test system: Monocotyledonous and dicotyledonous weed seeds and main crop seeds
Assay: Post-emergence test experiment (Table 3, 1000 g a.i./ha)
Assay type: in vivo
Conditions: Digitaria sanguinalis, 3 weeks in greenhouse, fresh weight inhibition
Method: as §1, §2

SMILES | Activity level (growth inhibition rate) Digitaria sanguinalis
CC(Oc1nc(F)c(Cl)c(N)c1Cl)C(=O)ON=C(c1ccc(Cl)cc1)c1cccc(F)c1 (centres unmarked) [Compound 82] | 5 (Level 5: the growth inhibition rate is greater than 85%)
CC(Oc1nc(F)c(Cl)c(N)c1Cl)C(=O)ON=C(C(=O)NCc1ccccc1)c1ccccc1 (centres unmarked) [Compound 101] | 5 (Level 5: the growth inhibition rate is greater than 85%)
CC(=O)C(=NOC(=O)C(C)Oc1nc(F)c(Cl)c(N)c1Cl)c1ccc(NOc2ccccc2)cc1 (centres unmarked) [Compound 91] | 5 (Level 5: the growth inhibition rate is greater than 85%)
CC(=NOC(=O)C(C)Oc1nc(F)c(Cl)c(N)c1Cl)c1ccc([N+](=O)[O-])cc1 (centres unmarked) [Compound 71] | 5 (Level 5: the growth inhibition rate is greater than 85%)

Same assay, conditions: Echinochloa crusgalli, 3 weeks in greenhouse, fresh weight inhibition

SMILES | Activity level (growth inhibition rate) Echinochloa crusgalli
CC(Oc1nc(F)c(Cl)c(N)c1Cl)C(=O)ON=C(c1ccc(Cl)cc1)c1cccc(F)c1 (centres unmarked) [Compound 82] | 5 (Level 5: the growth inhibition rate is greater than 85%)
CC(Oc1nc(F)c(Cl)c(N)c1Cl)C(=O)ON=C(C(=O)NCc1ccccc1)c1ccccc1 (centres unmarked) [Compound 101] | 5 (Level 5: the growth inhibition rate is greater than 85%)
CC(=O)C(=NOC(=O)C(C)Oc1nc(F)c(Cl)c(N)c1Cl)c1ccc(NOc2ccccc2)cc1 (centres unmarked) [Compound 91] | 5 (Level 5: the growth inhibition rate is greater than 85%)
CC(=NOC(=O)C(C)Oc1nc(F)c(Cl)c(N)c1Cl)c1ccc([N+](=O)[O-])cc1 (centres unmarked) [Compound 71] | 5 (Level 5: the growth inhibition rate is greater than 85%)

Same assay, conditions: Galium spurium, 3 weeks in greenhouse, fresh weight inhibition

SMILES | Activity level (growth inhibition rate) Galium spurium
CC(Oc1nc(F)c(Cl)c(N)c1Cl)C(=O)ON=C(c1ccc(Cl)cc1)c1cccc(F)c1 (centres unmarked) [Compound 82] | 5 (Level 5: the growth inhibition rate is greater than 85%)
CC(Oc1nc(F)c(Cl)c(N)c1Cl)C(=O)ON=C(C(=O)NCc1ccccc1)c1ccccc1 (centres unmarked) [Compound 101] | 5 (Level 5: the growth inhibition rate is greater than 85%)
CC(=O)C(=NOC(=O)C(C)Oc1nc(F)c(Cl)c(N)c1Cl)c1ccc(NOc2ccccc2)cc1 (centres unmarked) [Compound 91] | 5 (Level 5: the growth inhibition rate is greater than 85%)
CC(=NOC(=O)C(C)Oc1nc(F)c(Cl)c(N)c1Cl)c1ccc([N+](=O)[O-])cc1 (centres unmarked) [Compound 71] | 5 (Level 5: the growth inhibition rate is greater than 85%)

Same assay, conditions: Leptochloa chinensis, 3 weeks in greenhouse, fresh weight inhibition

SMILES | Activity level (growth inhibition rate) Leptochloa chinensis
CC(Oc1nc(F)c(Cl)c(N)c1Cl)C(=O)ON=C(c1ccc(Cl)cc1)c1cccc(F)c1 (centres unmarked) [Compound 82] | 5 (Level 5: the growth inhibition rate is greater than 85%)
CC(Oc1nc(F)c(Cl)c(N)c1Cl)C(=O)ON=C(C(=O)NCc1ccccc1)c1ccccc1 (centres unmarked) [Compound 101] | 5 (Level 5: the growth inhibition rate is greater than 85%)
CC(=O)C(=NOC(=O)C(C)Oc1nc(F)c(Cl)c(N)c1Cl)c1ccc(NOc2ccccc2)cc1 (centres unmarked) [Compound 91] | 5 (Level 5: the growth inhibition rate is greater than 85%)
CC(=NOC(=O)C(C)Oc1nc(F)c(Cl)c(N)c1Cl)c1ccc([N+](=O)[O-])cc1 (centres unmarked) [Compound 71] | 5 (Level 5: the growth inhibition rate is greater than 85%)

Same assay, conditions: Monochoria Vaginalis, 3 weeks in greenhouse, fresh weight inhibition

SMILES | Activity level (growth inhibition rate) Monochoria Vaginalis
CC(Oc1nc(F)c(Cl)c(N)c1Cl)C(=O)ON=C(c1ccc(Cl)cc1)c1cccc(F)c1 (centres unmarked) [Compound 82] | 5 (Level 5: the growth inhibition rate is greater than 85%)
CC(Oc1nc(F)c(Cl)c(N)c1Cl)C(=O)ON=C(C(=O)NCc1ccccc1)c1ccccc1 (centres unmarked) [Compound 101] | 5 (Level 5: the growth inhibition rate is greater than 85%)
CC(=O)C(=NOC(=O)C(C)Oc1nc(F)c(Cl)c(N)c1Cl)c1ccc(NOc2ccccc2)cc1 (centres unmarked) [Compound 91] | 5 (Level 5: the growth inhibition rate is greater than 85%)
CC(=NOC(=O)C(C)Oc1nc(F)c(Cl)c(N)c1Cl)c1ccc([N+](=O)[O-])cc1 (centres unmarked) [Compound 71] | 5 (Level 5: the growth inhibition rate is greater than 85%)

Same assay, conditions: Murdannia triquetra, 3 weeks in greenhouse, fresh weight inhibition

SMILES | Activity level (growth inhibition rate) Murdannia triquetra
CC(Oc1nc(F)c(Cl)c(N)c1Cl)C(=O)ON=C(c1ccc(Cl)cc1)c1cccc(F)c1 (centres unmarked) [Compound 82] | 5 (Level 5: the growth inhibition rate is greater than 85%)
CC(Oc1nc(F)c(Cl)c(N)c1Cl)C(=O)ON=C(C(=O)NCc1ccccc1)c1ccccc1 (centres unmarked) [Compound 101] | 5 (Level 5: the growth inhibition rate is greater than 85%)
CC(=O)C(=NOC(=O)C(C)Oc1nc(F)c(Cl)c(N)c1Cl)c1ccc(NOc2ccccc2)cc1 (centres unmarked) [Compound 91] | 5 (Level 5: the growth inhibition rate is greater than 85%)
CC(=NOC(=O)C(C)Oc1nc(F)c(Cl)c(N)c1Cl)c1ccc([N+](=O)[O-])cc1 (centres unmarked) [Compound 71] | 5 (Level 5: the growth inhibition rate is greater than 85%)

Same assay, conditions: Setaria viridis, 3 weeks in greenhouse, fresh weight inhibition

SMILES | Activity level (growth inhibition rate) Setaria viridis
CC(Oc1nc(F)c(Cl)c(N)c1Cl)C(=O)ON=C(c1ccc(Cl)cc1)c1cccc(F)c1 (centres unmarked) [Compound 82] | 5 (Level 5: the growth inhibition rate is greater than 85%)
CC(Oc1nc(F)c(Cl)c(N)c1Cl)C(=O)ON=C(C(=O)NCc1ccccc1)c1ccccc1 (centres unmarked) [Compound 101] | 5 (Level 5: the growth inhibition rate is greater than 85%)
CC(=O)C(=NOC(=O)C(C)Oc1nc(F)c(Cl)c(N)c1Cl)c1ccc(NOc2ccccc2)cc1 (centres unmarked) [Compound 91] | 5 (Level 5: the growth inhibition rate is greater than 85%)
CC(=NOC(=O)C(C)Oc1nc(F)c(Cl)c(N)c1Cl)c1ccc([N+](=O)[O-])cc1 (centres unmarked) [Compound 71] | 5 (Level 5: the growth inhibition rate is greater than 85%)
